From PMC12683216, “Using High‐Throughput Screening to Identify Crosslinking Peptides That Control Cell‐Mediated Matrix Degradation” (Advanced Healthcare Materials, 2025)
Where a SMILES comes first, the peptide text is derived from it. [ ]: non-standard residue; d: D form. βAla = NCCC(=O)O

Legend:
hMSCs = experiment: Quantification of peptide and hydrogel degradation in cell-laden PEG hydrogels (Cy3/FAM fluorescence); type: in vitro ADME, human
From the text: (§1) Next we designed systems to quantify the amount of crosslinking peptide degradation and bulk hydrogel degradation during culture. We synthesized both the KLVAD‐LM peptide and the PanMMP peptide with an N‐terminal Cy3 and a C‐terminal azide to click into the PEG hydrogel network, and also coupled fluorescein (FAM) to the hydrogel using a non‐degradable linker (Figure 5A). Proteolytic cleavage of the crosslinking peptides will liberate the Cy3 from the PEG hydrogel, and bulk erosion of the hydrogel reduces the amount of PEG and FAM. At desired time points, the gels were completely degraded with trypsin, and the fluorescence intensity of Cy3 and FAM was measured to quantify peptide and hydrogel degradation during culture (Figure 5B).
(§2) Figure 5 The rate of degradation of crosslinking peptides in the hydrogels was quantified using fluorescence. A) A fraction of PEG arms were functionalized with PanMMP and KLVAD‐LM peptides that were labeled with […] on their N‐terminus and conjugated to the PEG hydrogel matrix on their C‐terminus to quantify crosslinker degradation. Fluorescein (FAM) was also conjugated to the hydrogel through non‐degradable linkers to quantify bulk hydrogel degradation. […] The amounts of remaining Cy3 and FAM were quantified using fluorescence spectroscopy. […]

hUVECs = experiment: as above; type: in vitro ADME, human
From the text: as §1, §2

recombinant MMP‐14 = biological target: T1, recombinant MMP‐14 (Homo sapiens, UniProt P50281); experiment: Peptide degradation with added exogenous recombinant MMP-14 (LC-MS); type: in vitro ADME; conditions: fresh cell culture media (both hMSC and hUVEC media), no cell contact, recombinant MMP-14 0.5 nM, 24 h, LC-MS
T1 construct: purchased antibodies.com
Description: To verify that MMP‐14 can degrade the KLVAD‐LM and PanMMP peptides, recombinant MMP‐14 was added to the different peptides, both in PBS and in the Cell and Media culture conditions (Figure 7 ). Peptides were incubated under three conditions: in fresh cell culture media (“Blank”), in media with cells present (“Cells”), and in cell‐conditioned media (“Media”). This was done for both hMSCs and hUVECs, and was also done with and without the addition of exogenous MMP.
The extent of peptide degradation was quantified for samples both with and without the addition of exogenous MMP‐14. […] Error bars indicate ± standard deviation, N = 3 with technical triplicates.
hUVECs (75000 per well) or hMSCs (36000 per well) were seeded into a 48 well plate, and 500 µL media was added to the wells. […] The peptide libraries were dissolved at a stock solution of 10 mM total peptide content. For libraries containing 38 peptides, 95 µL of the stock solution was added to each well; for libraries with 19 peptides, 47.5 µL was added to each well, and media was taken at 0 and 24 h. Add 4 µL of acetic acid to all collected media in the LC‐MS plates and store them in a −80 °C freezer to prevent further proteolytic degradation. From each sample, 10 µL of crude solution was introduced by the LC‐MS through a Thermo Scientific Vanquish LC System (Thermo Fisher Scientific), which outputted to a Thermo Scientific LTQ XL Linear Ion Trap Mass Spectrometer (Thermo Fisher Scientific). The sampled mixture was trapped on a column (ProntoSIL C18 AQ, 120 Å, 3 µm, 2.0 x 50 mm HPLC Column, PN 0502F184PS030, MAC‐MOD Analytical Inc.). The samples were loaded onto the column with a solvent containing acetonitrile/water, 5:95 (v/v) containing 1% acetic acid at a flow rate of 300 µL min^−1 and held for 1 min. The sample was then eluted from the column with a linear gradient of 5–40% Solvent B (1% acetic acid in acetonitrile) at the same flow rate for 5 min. This was followed by a 1 min ramp up to 100% Solvent B, where it was re‐equilibrated with Solvent A (1% acetic acid) to 5% solvent B over the course of 1 min and held there for 2 min. The column temperature was kept at a constant 29 °C, and the mass spectrometer was operated in positive ion mode. Using a Heated ESI, the Source Voltage was set to 4.1 kV, and the capillary temperature was 350 °C. For non‐library degradation studies, 2.5 µL of 10 mM peptide stock solution for each peptide was added.
To assess the activity of the conditioned media, the media were divided into two equal portions. One portion was used for a standard degradation study, while the other was cultured for an additional 24 h before the PanMMP and KLVADLMASAE were added. After 24 h of incubation, the media were collected for further analysis. To assess the impact of recombinant MMP‐14 on PanMMP and KLVADLMASAE, recombinant MMP‐14 (antibodies.com) was dissolved in the media at a concentration of 0.5 nM. The remaining steps followed the standard degradation study protocol.
For all degradation studies using soluble peptides, a non‐proteolytically degradable NH2‐βFβAβAβAβAβAβA‐amide (βFβA6) peptide, where βF is β‐phenylalanine and βA is β‐alanine, was added at a 50 µM concentration and used as an internal standard. Peptide degradation ratios were measured by LC‐MS and analyzed by Xcalibur. The relative concentrations of the peptide were calculated by the ratio of the peak area of the peptide and the peak area of βFβA6.

| degradation within hydrogels relative to that seen with the PanMMP peptide, hMSCs (hMSCs) | degradation within hydrogels relative to that seen with the PanMMP peptide, hUVECs (hUVECs) | degradation on adding MMP‐14 to the Blank condition (recombinant MMP‐14) | Structure (SMILES) |
| --- | --- | --- | --- |
| 40–60% | 40–60% |  | CSCC[C@H](NC(=O)[C@H](CC(C)C)NC(=O)[C@H](CC(=O)O)NC(=O)[C@H](C)NC(=O)[C@@H](NC(=O)[C@H](CC(C)C)NC(=O)[C@H](CCCCN)NC(=O)CCNC(C)=O)C(C)C)C(=O)N[C@@H](C)C(=O)N[C@@H](CO)C(=O)N[C@@H](C)C(=O)N[C@@H](CCC(=O)O)C(=O)NCCC(N)=O [KLVAD-LM] (Ac-[βAla]KLVADLMASAE[βAla]-NH2) |
|  |  | 10–20% | CC[C@H](C)[C@H](NC(=O)CNC(=O)[C@H](CCC(N)=O)NC(=O)[C@@H]1CCCN1C(=O)CNC(=O)CCNC(C)=O)C(=O)N[C@@H](Cc1c[nH]c2ccccc12)C(=O)NCC(=O)N[C@@H](CCC(N)=O)C(=O)NCCC(N)=O [PanMMP, reference compound] (Ac-[βAla]GPQGIWGQ[βAla]-NH2) |
